Source: patent publication US20250296971A1, “GASTRIC INHIBITORY PEPTIDE RECEPTOR LIGANDS” (priority 2021, published 2025)
*1 amine or outer side, *2 acyl side, *3 side chain or, on linkers, in order; H or OH if unused. Where a SMILES comes first, the peptide text is derived from it. Bridges are numbered along the chain shown (N, C = ends). [ ]: non-standard residue; d: D form. The star is where a group is joined. X5 = NC(=O)[C@H](CCCCNC(=O)CN1CCN(CC(=O)O)CCN(CC(=O)O)CCN(CC(=O)O)CC1)NC(=O)CCC(=O)NCCCOCCOCCOCCCN*; DOTA(Ga) = O=C1CN2CCN3CCN(CC(=O)*)CCN(CC2)CC(=O)[O][Ga]([O]1)[O]C(=O)C3; X3 = O=C(O)CN1CCN(CC(=O)O)CCN(CC(=O)NCCCOCCOCCOCCCN*)CCN(CC(=O)O)CC1; NH(1-deoxy-D-glucityl) = OC[C@@H](O)[C@@H](O)[C@H](O)[C@@H](O)CN*; DOTA = O=C(O)CN1CCN(CC(=O)O)CCN(CC(=O)*)CCN(CC(=O)O)CC1; Trp(5-Cl) = N[C@@H](Cc1c[nH]c2ccc(Cl)cc12)C(=O)O; Pyridine(2,6-diCH2) = c1cc(C[*:1])nc(C[*:2])c1; Pro(4S-NH2) = N[C@@H]1CN[C@H](C(=O)O)C1; Pro(4R-NH2) = N[C@H]1CN[C@H](C(=O)O)C1; mXylylene = c1cc(C[*:1])cc(C[*:2])c1; Glutaryl = O=C(CCCC(=O)[*:2])[*:1]; X6 = c1cc(CSCCN[*:2])nc(C[*:1])c1; X7 = c1cc(CSCCN[*:2])cc(C[*:1])c1; Hyp = O=C(O)[C@@H]1C[C@@H](O)CN1; X1 = O=C(CN1CCC(N[*:1])CC1)[*:2]; Suc = O=C(CCC(=O)[*:2])[*:1]; Api = NC1(C(=O)O)CCNCC1; Thp = NC1(C(=O)O)CCOCC1; Aib = CC(C)(N)C(=O)O

Experiments:
[1] = target: T1, human GIP receptor (bioGIPR) (Homo sapiens, UniProt P48546); experiment: Surface plasmon resonance (SPR) based binding assay; conditions: Single Cycle Kinetic mode, 25° C.; for t1/2 Category: SPR dissociation half-life; for Kd: SPR, 1:1 Langmuir binding model, read-out: pKD Category (converted)
T1 construct: Biotinylate extracellular of the human GIP receptor (bioGIPR, Proteros biostructures GmbH, lot #02/2b); purchased Proteros biostructures GmbH lot #02/2b
T1 sequence (P48546 22-138 limits assumed): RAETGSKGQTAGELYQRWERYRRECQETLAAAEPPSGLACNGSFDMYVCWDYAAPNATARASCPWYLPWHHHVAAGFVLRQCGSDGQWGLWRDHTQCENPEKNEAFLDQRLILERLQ
Protocol: Surface plasmon resonance (SPR) studies were performed using a Biacore™ T200 SPR system. Briefly, polarized light is directed towards a gold-labeled sensor surface, and minimum intensity reflected light is detected. The angle of reflected light changes as molecules bind and dissociate.
Biotinylate extracellular of the human GIP receptor (bioGIPR, Proteros biostructures GmbH, lot #02/2b) was captured on a biotin capture chip (Biotin CAPture Kit, Series S, GE Healthcare, Cat #28-9202-34). bioGIPR was diluted in Running Buffer (HBST from Xantec Analytics; […], 0.05% Tween20, 0.1% DMSO) to a final concentration 100 nM and than flushed over the Fc-capture chip to immobilized ˜3500 RUs.
Stock solutions of test compounds were prepared by dissolving each compound in DMSO. DMSO stock solution were diluted 1:1000 in Running Buffer without DMSO. Further sequential dilutions were made with Running Buffer containing 0.1% DMSO. SPR binding analyses were performed in Single Cycle Kinetic (SCK) mode at 25° C. Flow cell without immobilized bioGIPR served as reference flowcell. After each SCK run, bioGIRP and the Biotin Capture Reagent was removed with Regeneration Solution (6 M Guanidium, 0.75 M NaOH).
In between every three SCK measurements, a blank run with Running Buffer instead of test compound was included to correct for baseline drifts (double blanking method).
For each test compound, SPR raw data in the form of resonance units (RU) were plotted as sensorgrams using the Biacore™ T200 control software. The signal from the blank sensorgram was subtracted from that of the test compound sensorgram (blank corrected). The blank corrected sensorgram was corrected for baseline drift by subtracting the sensorgram of a SCK run without the test compound (running buffer only). The association rate (kon), dissociation rate (koff), dissociation constant (KD), and t1/2 were calculated from blank corrected SPR data using the 1:1 Langmuir binding model from the Biacore™ T200 evaluation software. Raw data and fit results were imported as text files in IDBS. The pKD value (negative decadic logarithm of dissociation constant) was calculated in the IDBS excel template.

[2] = target: T2, GIPR (CHO-K1-hGIPR cells) (Homo sapiens, UniProt P48546); experiment: FACS binding assay; conditions: competition with 20 nM GIP-057, 4° C., 1 hour, read-out: pIC50 Category (converted)
T2 construct: host or cells: CHO-K1
T2 sequence (P48546 22-466): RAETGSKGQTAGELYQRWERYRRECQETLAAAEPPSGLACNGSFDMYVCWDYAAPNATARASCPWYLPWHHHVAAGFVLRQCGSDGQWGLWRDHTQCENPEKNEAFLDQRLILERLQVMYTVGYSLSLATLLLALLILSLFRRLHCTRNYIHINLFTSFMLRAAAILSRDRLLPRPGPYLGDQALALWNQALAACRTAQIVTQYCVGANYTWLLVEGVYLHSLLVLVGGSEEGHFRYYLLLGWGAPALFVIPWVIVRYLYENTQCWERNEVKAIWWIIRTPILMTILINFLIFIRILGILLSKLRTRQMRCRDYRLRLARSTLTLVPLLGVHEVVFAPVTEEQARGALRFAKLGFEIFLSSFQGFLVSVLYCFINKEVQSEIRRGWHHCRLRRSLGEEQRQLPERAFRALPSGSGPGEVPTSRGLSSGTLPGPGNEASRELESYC
How it was run: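 CHO-K1 cells expressing human GIPR, washed in PBS/1% FCS, then stained with 1 μg/mL APC-streptavidin for 30 min on ice.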

| t1/2 Category [1] | Kd [1] | IC50 [2] | SMILES |
| --- | --- | --- | --- |
|  | < 1 nM | < 10 nM | CC[C@H](C)[C@@H]1NC(=O)[C@H](CC(C)C)NC(=O)C(C)(C)NC(=O)[C@@H](NC(=O)[C@@H](CC(C)C)NC(=O)[C@H](CCC(=O)O)NC(=O)[C@@H]2CCCN2C(=O)[C@H](Cc2c[nH]c3ccc(Cl)cc23)NC(=O)[C@H](Cc2c[nH]c3ccccc23)NC(=O)[C@H](CC(=O)O)NC(=O)CCC(=O)NCCCOCCOCCOCCCNC(=O)CN2CCN(CC(=O)O)CCN(CC(=O)O)CCN(CC(=O)O)CC2)CSCc2cccc(c2)CSCCNC1=O [GIP-077, DOTA-Ttds-Asp-Trp-5Clw-Pro-Glu-leu-[Cys(3MeBn)-Aib-Leu-Ile-AET]] ({X3-Suc}-DW[Trp(5-Cl)]PE[dL]C[Aib]LI; linker 7-C via X7) |
| A (t1/2 values>15 min) | < 1 nM | < 10 nM | CC[C@H](C)[C@@H]1NC(=O)[C@H](CC(C)C)NC(=O)C(C)(C)NC(=O)[C@@H](NC(=O)[C@@H](CC(C)C)NC(=O)[C@H](CCC(=O)O)NC(=O)[C@@H]2CCCN2C(=O)[C@H](Cc2c[nH]c3ccc(Cl)cc23)NC(=O)[C@H](Cc2c[nH]c3ccccc23)NC(=O)[C@H](CC(=O)O)NC(C)=O)CSCc2cccc(c2)CSC[C@@H](C(=O)NCCCOCCOCCOCCCNC(=O)CCC(=O)N[C@@H](CCCCNC(=O)CN2CCN(CC(=O)O)CCN(CC(=O)O)CCN(CC(=O)O)CC2)C(N)=O)NC1=O [GIP-079, Ac-Asp-Trp-5Clw-Pro-Glu-leu-[Cys(3MeBn)-Aib-Leu-Ile-Cys]-Ttds-Lys(DOTA)-NH2] (Ac-DW[Trp(5-Cl)]PE[dL]C[Aib]LIC-X5; linker 7-11 via mXylylene) |
| A (t1/2 values>15 min) | < 1 nM | < 10 nM | CC[C@H](C)[C@@H]1NC(=O)[C@H](CC(C)C)NC(=O)C(C)(C)NC(=O)[C@@H](NC(=O)[C@@H](CC(C)C)NC(=O)[C@H](CCC(=O)O)NC(=O)[C@@H]2C[C@@H](N)CN2C(=O)[C@H](Cc2c[nH]c3ccc(Cl)cc23)NC(=O)[C@H](Cc2c[nH]c3ccccc23)NC(=O)[C@H](CC(=O)O)NC(=O)CCC(=O)NCCCOCCOCCOCCCNC(=O)CN2CCN(CC(=O)O)CCN(CC(=O)O)CCN(CC(=O)O)CC2)CSCc2cccc(c2)CSCCNC1=O [GIP-095, DOTA-Ttds-Asp-Trp-5Clw-Tap-Glu-leu-[Cys(3MeBn)-Aib-Leu-Ile-AET]] ({X3-Suc}-DW[Trp(5-Cl)][Pro(4R-NH2)]E[dL]C[Aib]LI; linker 7-C via X7) |
| A (t1/2 values>15 min) | < 1 nM | < 10 nM | CC[C@H](C)[C@@H]1NC(=O)[C@H](CC(C)C)NC(=O)C(C)(C)NC(=O)[C@@H](NC(=O)[C@@H](CC(C)C)NC(=O)[C@H](CCC(=O)O)NC(=O)[C@@H]2C[C@H](N)CN2C(=O)[C@H](Cc2c[nH]c3ccc(Cl)cc23)NC(=O)[C@H](Cc2c[nH]c3ccccc23)NC(=O)[C@H](CC(=O)O)NC(=O)CCC(=O)NCCCOCCOCCOCCCNC(=O)CN2CCN(CC(=O)O)CCN(CC(=O)O)CCN(CC(=O)O)CC2)CSCc2cccc(c2)CSCCNC1=O [GIP-096, DOTA-Ttds-Asp-Trp-5Clw-4Ap-Glu-leu-[Cys(3MeBn)-Aib-Leu-Ile-AET]] ({X3-Suc}-DW[Trp(5-Cl)][Pro(4S-NH2)]E[dL]C[Aib]LI; linker 7-C via X7) |
| A (t1/2 values>15 min) | < 1 nM | < 10 nM | CC[C@H](C)[C@@H]1NC(=O)[C@H](CC(C)C)NC(=O)C2(CCN(C(C)=O)CC2)NC(=O)[C@@H](NC(=O)[C@@H](CC(C)C)NC(=O)[C@H](CCC(=O)O)NC(=O)[C@@H]2CCCN2C(=O)[C@H](Cc2c[nH]c3ccc(Cl)cc23)NC(=O)[C@H](Cc2c[nH]c3ccccc23)NC(=O)[C@H](CC(=O)O)NC(=O)CCC(=O)NCCCOCCOCCOCCCNC(=O)CN2CCN(CC(=O)O)CCN(CC(=O)O)CCN(CC(=O)O)CC2)CSCc2cccc(c2)CSCCNC1=O [GIP-097, DOTA-Ttds-Asp-Trp-5Clw-Pro-Glu-leu-[Cys(3MeBn)-Apc(Ac)-Leu-Ile-AET]] ({X3-Suc}-DW[Trp(5-Cl)]PE[dL]C[Api](Ac)LI; linker 7-C via X7) |
| A (t1/2 values>15 min) | < 1 nM | < 10 nM | CC[C@H](C)[C@@H]1NC(=O)[C@H](CC(C)C)NC(=O)C2(CCOCC2)NC(=O)[C@@H](NC(=O)[C@@H](CC(C)C)NC(=O)[C@H](CCC(=O)O)NC(=O)[C@@H]2C[C@@H](O)CN2C(=O)[C@H](Cc2c[nH]c3ccc(Cl)cc23)NC(=O)[C@H](Cc2c[nH]c3ccccc23)NC(=O)[C@H](CC(=O)O)NC(=O)CN2CCC(NC(=O)CN3CCN(CC(=O)O)CCN(CC(=O)O)CCN(CC(=O)O)CC3)CC2)CSCc2cccc(n2)CSCCNC1=O [GIP-103, DOTA-APAc-Asp-Trp-5Clw-Hyp-Glu-leu-[Cys(2Lut)-Thp-Leu-Ile-AET]] ({DOTA}-[X1]DW[Trp(5-Cl)][Hyp]E[dL]C[Thp]LI; linker 8-C via X6) |
| A (t1/2 values>15 min) | 1 to 7.94 nM | < 10 nM | CC[C@H](C)[C@@H]1NC(=O)[C@H](CC(C)C)NC(=O)C2(CCOCC2)NC(=O)[C@@H](NC(=O)[C@@H](CC(C)C)NC(=O)[C@H](CCC(=O)O)NC(=O)[C@@H]2C[C@@H](O)CN2C(=O)[C@H](Cc2c[nH]c3ccc(Cl)cc23)NC(=O)[C@H](Cc2c[nH]c3ccccc23)NC(=O)[C@H](CC(=O)O)NC(=O)CN2CCC(NC(=O)CN3CCN(CC(=O)O)CCN(CC(=O)O)CCN(CC(=O)O)CC3)CC2)CNCc2cccc(n2)CSCCNC1=O [GIP-106, DOTA-APAc-Asp-Trp-5Clw-Hyp-Glu-leu-[Dap(2Lut)-Thp-Leu-Ile-AET]] |
| A (t1/2 values>15 min) | < 1 nM | < 10 nM | CC[C@H](C)[C@@H]1NC(=O)[C@H](CC(C)C)NC(=O)C2(CCOCC2)NC(=O)[C@@H](NC(=O)[C@@H](CC(C)C)NC(=O)[C@H](CCC(=O)O)NC(=O)[C@@H]2C[C@@H](O)CN2C(=O)[C@H](Cc2c[nH]c3ccc(Cl)cc23)NC(=O)[C@H](Cc2c[nH]c3ccccc23)NC(=O)[C@H](CC(=O)O)NC(=O)CN2CCC(NC(=O)CN3CCN(CC(=O)O)CCN(CC(=O)O)CCN(CC(=O)O)CC3)CC2)CNCc2cccc(c2)CSCCNC1=O [GIP-107, DOTA-APAc-Asp-Trp-5Clw-Hyp-Glu-leu-[Dap(3MeBn)-Thp-Leu-Ile-AET]] |

| SMILES | t1/2 Category [1] | Kd [1] | IC50 [2] |
| --- | --- | --- | --- |
| CC[C@H](C)[C@@H]1NC(=O)[C@H](CC(C)C)NC(=O)C2(CCN(C(=O)CN3CCN4CCN5CCN(CC3)CC(=O)[O][Ga]([O]C(=O)C5)[O]C(=O)C4)CC2)NC(=O)[C@@H](NC(=O)[C@@H](CC(C)C)NC(=O)[C@H](CCC(=O)O)NC(=O)[C@@H]2C[C@@H](N)CN2C(=O)[C@H](Cc2c[nH]c3ccc(Cl)cc23)NC(=O)[C@H](Cc2c[nH]c3ccccc23)NC(=O)[C@H](CC(=O)O)NC(=O)CCCC(=O)NC[C@H](O)[C@@H](O)[C@H](O)[C@H](O)CO)CSCc2cccc(n2)CSC[C@@H](C(=O)NC2CCN(CC(=O)N[C@H](CCC(=O)NC[C@H](O)[C@@H](O)[C@H](O)[C@H](O)CO)C(N)=O)CC2)NC1=O [GIP-069, Gallium-Complex of AGLU-Glutar-Asp-Trp-5Clw-Tap-Glu-leu-[Cys(2Lut)-Apc(DOTA)-Leu-Ile-Cys]-APAc-glu(AGLU)-NH2] ({NH(1-deoxy-D-glucityl)-Glutaryl}-DW[Trp(5-Cl)][Pro(4R-NH2)]E[dL]C[Api](DOTA(Ga))LIC[X1][dE](NH(1-deoxy-D-glucityl))-NH2; linker 7-11 via Pyridine(2,6-diCH2)) | A (t1/2 values>15 min) | < 1 nM | < 10 nM |
